Source: PMC10850145, “Hormonal steroids induce multidrug resistance and stress response genes in Neisseria gonorrhoeae by binding to MtrR” (Nature Communications, 2024)
Values joined by “and” are separate entries in the source; they are usually repeats but may differ in a detail not shown here. Identical values can stand only once.

System: FA19-rpoH-lacZ
Assay: Gonococcal growth in liquid culture (GC broth) with hormones (Fig S7)

CC(=O)[C@H]1CC[C@H]2[C@@H]3CCC4=CC(=O)CC[C@]4(C)[C@H]3CC[C@]12C [Progesterone, progesterone]
growth curve reading after BLANKING (0 hr, 0.1 µM): 0.013 | growth curve reading, raw replicates (0 hr, 0.1 µM): 0.046 | growth curve reading after BLANKING (0 hr, 1 µM): 0.013 | growth curve reading, raw replicates (0 hr, 1 µM): 0.046 | growth curve reading after BLANKING (0 hr, 10 µM): 0.013 | growth curve reading, raw replicates (0 hr, 10 µM): 0.046 | growth curve reading after BLANKING (0 hr, 25 µM): 0.013 | growth curve reading, raw replicates (0 hr, 25 µM): 0.046 | growth curve reading after BLANKING (0 hr, 50 µM): 0.013 | growth curve reading, raw replicates (0 hr, 50 µM): 0.046 | growth curve reading after BLANKING (1.18 hr, 0.1 µM): 0.018 | growth curve reading, raw replicates (1.18 hr, 0.1 µM): 0.051 and 0.052 | growth curve reading after BLANKING (1.18 hr, 1 µM): 0.020 | growth curve reading, raw replicates (1.18 hr, 1 µM): 0.051 and 0.054 | growth curve reading after BLANKING (1.18 hr, 10 µM): 0.019 | growth curve reading, raw replicates (1.18 hr, 10 µM): 0.051 and 0.052 | growth curve reading after BLANKING (1.18 hr, 25 µM): 0.018 | growth curve reading, raw replicates (1.18 hr, 25 µM): 0.051 and 0.052 | growth curve reading after BLANKING (1.18 hr, 50 µM): 0.017 | growth curve reading, raw replicates (1.18 hr, 50 µM): 0.049 and 0.051 | growth curve reading after BLANKING (2 hr, 0.1 µM): 0.029 | growth curve reading, raw replicates (2 hr, 0.1 µM): 0.062 | growth curve reading after BLANKING (2 hr, 1 µM): 0.031 | growth curve reading, raw replicates (2 hr, 1 µM): 0.063 and 0.066 | growth curve reading after BLANKING (2 hr, 10 µM): 0.029 | growth curve reading, raw replicates (2 hr, 10 µM): 0.062 | growth curve reading after BLANKING (2 hr, 25 µM): 0.030 | growth curve reading, raw replicates (2 hr, 25 µM): 0.062 and 0.065 | growth curve reading after BLANKING (2 hr, 50 µM): 0.026 | growth curve reading, raw replicates (2 hr, 50 µM): 0.060 and 0.059 | growth curve reading after BLANKING (3 hr, 0.1 µM): 0.038 | growth curve reading, raw replicates (3 hr, 0.1 µM): 0.072 and 0.070 | growth curve reading after BLANKING (3 hr, 1 µM): 0.046 | growth curve reading, raw replicates (3 hr, 1 µM): 0.080 and 0.077 | growth curve reading after BLANKING (3 hr, 10 µM): 0.037 | growth curve reading, raw replicates (3 hr, 10 µM): 0.070 | growth curve reading after BLANKING (3 hr, 25 µM): 0.046 | growth curve reading, raw replicates (3 hr, 25 µM): 0.079 | growth curve reading after BLANKING (3 hr, 50 µM): 0.033 | growth curve reading, raw replicates (3 hr, 50 µM): 0.067 and 0.065 | growth curve reading after BLANKING (4 hr, 0.1 µM): 0.053 | growth curve reading, raw replicates (4 hr, 0.1 µM): 0.086 | growth curve reading after BLANKING (4 hr, 1 µM): 0.062 | growth curve reading, raw replicates (4 hr, 1 µM): 0.093 and 0.096 | growth curve reading after BLANKING (4 hr, 10 µM): 0.050 | growth curve reading, raw replicates (4 hr, 10 µM): 0.082 and 0.084 | growth curve reading after BLANKING (4 hr, 25 µM): 0.062 | growth curve reading, raw replicates (4 hr, 25 µM): 0.096 and 0.093 | growth curve reading after BLANKING (4 hr, 50 µM): 0.044 | growth curve reading, raw replicates (4 hr, 50 µM): 0.076 and 0.078 | growth curve reading after BLANKING (5 hr, 0.1 µM): 0.071 | growth curve reading, raw replicates (5 hr, 0.1 µM): 0.103 and 0.104 | growth curve reading after BLANKING (5 hr, 1 µM): 0.079 | growth curve reading, raw replicates (5 hr, 1 µM): 0.110 and 0.113 | growth curve reading after BLANKING (5 hr, 10 µM): 0.065 | growth curve reading, raw replicates (5 hr, 10 µM): 0.096 and 0.099 | growth curve reading after BLANKING (5 hr, 25 µM): 0.078 | growth curve reading, raw replicates (5 hr, 25 µM): 0.113 and 0.110 | growth curve reading after BLANKING (5 hr, 50 µM): 0.056 | growth curve reading, raw replicates (5 hr, 50 µM): 0.087 and 0.090 | growth curve reading after BLANKING (5.95 hr, 0.1 µM): 0.089 | growth curve reading, raw replicates (5.95 hr, 0.1 µM): 0.121 and 0.123 | growth curve reading after BLANKING (5.95 hr, 1 µM): 0.097 | growth curve reading, raw replicates (5.95 hr, 1 µM): 0.130 | growth curve reading after BLANKING (5.95 hr, 10 µM): 0.080 | growth curve reading, raw replicates (5.95 hr, 10 µM): 0.112 and 0.115 | growth curve reading after BLANKING (5.95 hr, 25 µM): 0.095 | growth curve reading, raw replicates (5.95 hr, 25 µM): 0.130 and 0.126 | growth curve reading after BLANKING (5.95 hr, 50 µM): 0.070 | growth curve reading, raw replicates (5.95 hr, 50 µM): 0.103 and 0.104 | growth curve reading after BLANKING (6.82 hr, 0.1 µM): 0.100 | growth curve reading, raw replicates (6.82 hr, 0.1 µM): 0.130 | growth curve reading after BLANKING (6.82 hr, 1 µM): 0.112 | growth curve reading after BLANKING (6.82 hr, 10 µM): 0.091 | growth curve reading, raw replicates (6.82 hr, 10 µM): 0.126 and 0.123 | growth curve reading after BLANKING (6.82 hr, 25 µM): 0.109 | growth curve reading after BLANKING (6.82 hr, 50 µM): 0.083 | growth curve reading, raw replicates (6.82 hr, 50 µM): 0.114 and 0.119

C[C@]12CC[C@H]3[C@@H](CCC4=CC(=O)CC[C@@]43C)[C@@H]1CC[C@@H]2O [Testosterone, testosterone]
growth curve reading after BLANKING (testosterone run) (0 hr, 0.1 µM): 0.013 | growth curve reading, raw replicates (testosterone run) (0 hr, 0.1 µM): 0.046 | growth curve reading after BLANKING (testosterone run) (0 hr, 1 µM): 0.013 | growth curve reading, raw replicates (testosterone run) (0 hr, 1 µM): 0.046 | growth curve reading after BLANKING (testosterone run) (0 hr, 10 µM): 0.013 | growth curve reading, raw replicates (testosterone run) (0 hr, 10 µM): 0.046 | growth curve reading after BLANKING (testosterone run) (0 hr, 50 µM): 0.013 | growth curve reading, raw replicates (testosterone run) (0 hr, 50 µM): 0.046 | growth curve reading after BLANKING (testosterone run) (0 hr, 100 µM): 0.013 | growth curve reading, raw replicates (testosterone run) (0 hr, 100 µM): 0.046 | growth curve reading after BLANKING (testosterone run) (2 hr, 0.1 µM): 0.048 | growth curve reading, raw replicates (testosterone run) (2 hr, 0.1 µM): 0.082 and 0.080 and 0.081 | growth curve reading after BLANKING (testosterone run) (2 hr, 1 µM): 0.047 | growth curve reading, raw replicates (testosterone run) (2 hr, 1 µM): 0.077 and 0.081 and 0.082 | growth curve reading after BLANKING (testosterone run) (2 hr, 10 µM): 0.047 | growth curve reading, raw replicates (testosterone run) (2 hr, 10 µM): 0.079 and 0.083 | growth curve reading after BLANKING (testosterone run) (2 hr, 50 µM): 0.049 | growth curve reading, raw replicates (testosterone run) (2 hr, 50 µM): 0.083 and 0.081 | growth curve reading after BLANKING (testosterone run) (2 hr, 100 µM): 0.048 | growth curve reading, raw replicates (testosterone run) (2 hr, 100 µM): 0.089 and 0.075 and 0.078 | growth curve reading after BLANKING (testosterone run) (3 hr, 0.1 µM): 0.071 | growth curve reading after BLANKING (testosterone run) (3 hr, 1 µM): 0.076 | growth curve reading after BLANKING (testosterone run) (3 hr, 10 µM): 0.073 | growth curve reading after BLANKING (testosterone run) (3 hr, 50 µM): 0.076 | growth curve reading after BLANKING (testosterone run) (3 hr, 100 µM): 0.077 | growth curve reading, raw replicates (testosterone run) (3 hr, 100 µM): 0.116 | growth curve reading after BLANKING (testosterone run) (4.03 hr, 0.1 µM): 0.095 | growth curve reading, raw replicates (testosterone run) (4.03 hr, 0.1 µM): 0.117 | growth curve reading after BLANKING (testosterone run) (4.03 hr, 1 µM): 0.101 | growth curve reading after BLANKING (testosterone run) (4.03 hr, 10 µM): 0.099 | growth curve reading after BLANKING (testosterone run) (4.03 hr, 50 µM): 0.102 | growth curve reading after BLANKING (testosterone run) (4.03 hr, 100 µM): 0.108 | growth curve reading, raw replicates (testosterone run) (4.03 hr, 100 µM): 0.148 | growth curve reading after BLANKING (testosterone run) (5.03 hr, 0.1 µM): 0.121 | growth curve reading, raw replicates (testosterone run) (5.03 hr, 0.1 µM): 0.160 and 0.163 | growth curve reading after BLANKING (testosterone run) (5.03 hr, 1 µM): 0.127 | growth curve reading, raw replicates (testosterone run) (5.03 hr, 1 µM): 0.163 and 0.161 and 0.157 | growth curve reading after BLANKING (testosterone run) (5.03 hr, 10 µM): 0.125 | growth curve reading, raw replicates (testosterone run) (5.03 hr, 10 µM): 0.164 and 0.157 and 0.153 | growth curve reading after BLANKING (testosterone run) (5.03 hr, 50 µM): 0.130 | growth curve reading, raw replicates (testosterone run) (5.03 hr, 50 µM): 0.161 and 0.162 and 0.165 | growth curve reading after BLANKING (testosterone run) (5.03 hr, 100 µM): 0.139 | growth curve reading, raw replicates (testosterone run) (5.03 hr, 100 µM): 0.174 and 0.161 and 0.181 | growth curve reading after BLANKING (testosterone run) (6.03 hr, 0.1 µM): 0.152 | growth curve reading, raw replicates (testosterone run) (6.03 hr, 0.1 µM): 0.171 and 0.189 and 0.195 | growth curve reading after BLANKING (testosterone run) (6.03 hr, 1 µM): 0.157 | growth curve reading, raw replicates (testosterone run) (6.03 hr, 1 µM): 0.195 and 0.191 and 0.185 | growth curve reading after BLANKING (testosterone run) (6.03 hr, 10 µM): 0.151 | growth curve reading, raw replicates (testosterone run) (6.03 hr, 10 µM): 0.192 and 0.181 and 0.179 | growth curve reading after BLANKING (testosterone run) (6.03 hr, 50 µM): 0.161 | growth curve reading, raw replicates (testosterone run) (6.03 hr, 50 µM): 0.192 and 0.195 | growth curve reading after BLANKING (testosterone run) (6.03 hr, 100 µM): 0.177 | growth curve reading, raw replicates (testosterone run) (6.03 hr, 100 µM): 0.198 | growth curve reading after BLANKING (testosterone run) (7.03 hr, 0.1 µM): 0.177 | growth curve reading, raw replicates (testosterone run) (7.03 hr, 0.1 µM): 0.195 | growth curve reading after BLANKING (testosterone run) (7.03 hr, 1 µM): 0.182 | growth curve reading, raw replicates (testosterone run) (7.03 hr, 1 µM): 0.210 | growth curve reading after BLANKING (testosterone run) (7.03 hr, 10 µM): 0.178 | growth curve reading, raw replicates (testosterone run) (7.03 hr, 10 µM): 0.205 | growth curve reading, raw replicates (testosterone run) (7.03 hr, 100 µM): 0.250 | growth curve reading after BLANKING (testosterone run) (7.3 hr, 100 µM): 0.226 | growth curve reading, raw replicates (testosterone run) (7.3 hr, 100 µM): 0.266 and 0.272 | growth curve reading after BLANKING (testosterone run) ([…], 0.1 µM): 0.028 | growth curve reading after BLANKING (testosterone run) ([…], 1 µM): 0.027 | growth curve reading after BLANKING (testosterone run) ([…], 10 µM): 0.026 | growth curve reading after BLANKING (testosterone run) ([…], 50 µM): 0.026 | growth curve reading after BLANKING (testosterone run) ([…], 100 µM): 0.025
